From article PMC10107164 (2022) come the findings set out here.

The structures appear in SMILES notation.

In assay [1] the test system is HTelo (F21T-K / F21T-Na) (DNA, G4) GGGTTAGGGTTAGGGTTAGGG
In words: FRET melting. The conditions noted are these: 10 mM LiCac, pH 7.3, 0.2 μM DNA, 2 μM compound (1:10).

In assay [2] the test system is Kit1 (labelled) (DNA, G4) AGGGAGGGCGCTGGGAGGAGGG
As to the kind of experiment: FRET melting. The conditions noted are these: 100 mM KCl; 10 mM LiCac, pH 7.3; 0.2 μM DNA, 2 μM compound (1:10).

The test system of assay [3] is Kit2 (labelled) (DNA, G4) CGGGCGGGCGCGAGGGAGGGG
In words: FRET melting. The conditions noted are these: 100 mM KCl; 10 mM LiCac, pH 7.3; 0.2 μM DNA, 2 μM compound (1:10).

The subject of assay [4] is Bcl2 (labelled) (DNA, G4) GGGCGCGGGAGGAATTGGGCGGG
As to the kind of experiment: FRET melting. The conditions noted are these: 100 mM KCl; 10 mM LiCac, pH 7.3; 0.2 μM DNA, 2 μM compound (1:10).

The subject of assay [5] is F21T-RNA (RNA, G4) GGGUUAGGGUUAGGGUUAGGG
As to the kind of experiment: FRET melting. Conditions: 100 mM KCl; 10 mM LiCac, pH 7.3; 0.2 μM DNA, 2 μM compound (1:10).

The subject of assay [6] is TBA (labelled) (DNA, G4) GGTTGGTGTGGTTGG
In words: FRET melting. The conditions noted are these: 100 mM KCl; 10 mM LiCac, pH 7.3; 0.2 μM DNA, 1 μM compound (1:5).

For assay [7], the system named is 24TTG (labelled) (DNA, G4) TTGGGTTAGGGTTAGGGTTAGGGA
As to the kind of experiment: FRET melting. Conditions: 100 mM KCl; 10 mM LiCac, pH 7.3; 0.2 μM DNA, 2 μM compound (1:10).

Assay [8] deals with 26TTA (labelled) (DNA, G4) TTAGGGTTAGGGTTAGGGTTAGGGTT
In words: FRET melting. The conditions noted are these: 100 mM KCl; 10 mM LiCac, pH 7.3; 0.2 μM DNA, 2 μM compound (1:10).

Assay [9] concerns ds26 (labelled) (DNA, duplex) CAATCGGATCGAATTCGATCCGATTG
In words: FRET melting. Conditions: 100 mM KCl; 10 mM LiCac, pH 7.3; 0.2 μM DNA, 2 μM compound (1:10).

Assay [10] relates to HTelo (HTelo22) (DNA, G4) AGGGTTAGGGTTAGGGTTAGGG
In words: thiazole orange displacement (FID). Conditions: 100 mM KCl; 10 mM LiCaco, pH 7.2; 1 μM DNA, 2 μM thiazole orange displaced.

Assay [11] relates to cMyc (DNA, G4) TGAGGGTGGGTAGGGTGGGTAA
In words: thiazole orange displacement (FID). Conditions: 100 mM KCl; 10 mM LiCaco, pH 7.2; 1 μM DNA, 2 μM thiazole orange displaced.

In assay [12] the test system is Kit1 (DNA, G4) AGGGAGGGCGCTGGGAGGAGGG
As to the kind of experiment: thiazole orange displacement (FID). Conditions: 100 mM KCl; 10 mM LiCaco, pH 7.2; 1 μM DNA, 2 μM thiazole orange displaced.

The test system of assay [13] is ds26 (DNA, duplex) CAATCGGATCGAATTCGATCCGATTG
In words: thiazole orange displacement (FID). The conditions noted are these: 100 mM KCl; 10 mM LiCaco, pH 7.2; 1 μM DNA, 3 μM thiazole orange displaced.

Assay [14] relates to HTelo (HTelo22) (DNA, G4) AGGGTTAGGGTTAGGGTTAGGG
As to the kind of experiment: fluorimetric titration (ligand emission). Conditions: 100 mM KCl; 10 mM Tris, pH 7.4; 1:1 binding model.

In assay [15] the test system is cMyc (DNA, G4) TGAGGGTGGGTAGGGTGGGTAA
As to the kind of experiment: fluorimetric titration (ligand emission). Conditions: 100 mM KCl; 10 mM Tris, pH 7.4; 1:1 binding model.

The test system of assay [16] is Kit1 (DNA, G4) AGGGAGGGCGCTGGGAGGAGGG
In words: fluorimetric titration (ligand emission). Conditions: 100 mM KCl; 10 mM Tris, pH 7.4; 1:1 binding model.

For assay [17], the system named is Bcl2 (DNA, G4) GGGCGCGGGAGGAATTGGGCGGG
In words: fluorimetric titration (ligand emission). Conditions: 100 mM KCl; 10 mM Tris, pH 7.4; 1:1 binding model.

The test system of assay [18] is ds26 (DNA, duplex) CAATCGGATCGAATTCGATCCGATTG
In words: fluorimetric titration (ligand emission). The conditions noted are these: 100 mM KCl; 10 mM Tris, pH 7.4; 1:1 binding model.

A word on the ΔTm: it is the shift of the melting midpoint relative to a reference. In the case of `C[N+](C)(C)CCCOc1ccc(N(c2ccc(OCCC[N+](C)(C)C)cc2)c2ccc(-c3ccc4c(c3)C3(c5ccccc5-c5ccccc53)c3cc(-c5ccc(N(c6ccc(OCCC[N+](C)(C)C)cc6)c6ccc(OCCC[N+](C)(C)C)cc6)cc5)ccc3-4)cc2)cc1`, the ΔTm is more than 35 °C in assay [1] (100 mM KCl); 24.8 °C in assay [1] (100 mM NaCl); more than 35 °C in assay [2]; 27.9 °C in [3]; 30.5 °C in assay [4]; more than 26.5 °C in assay [5]. Besides, the results for the ΔTm in [6], in assay [7] and in assay [8] were 19.4 °C, less than 12 °C and less than 12 °C, respectively. The binding result in [9] is “no”. Also, the DC50 in assay [10] was more than 5 µM; in assay [11] it was 2.84 µM; in assay [12], 3.00 µM; in [13] it was more than 5 µM. Also, the Ka in [14] is > 10^7 M^-1; in assay [15], 4.5(0.8)x10^5 M^-1; in assay [16], 4.0(0.4)x10^5 M^-1; in [17] it was 5.4(0.5)x10^5 M^-1; in assay [18], 3.5(0.5)x10^5 M^-1.

`O=S(=O)(O)CCCCOc1ccc(N(c2ccc(OCCCCS(=O)(=O)O)cc2)c2ccc(-c3ccc4c(c3)C3(c5ccccc5-c5ccccc53)c3cc(-c5ccc(N(c6ccc(OCCCCS(=O)(=O)O)cc6)c6ccc(OCCCCS(=O)(=O)O)cc6)cc5)ccc3-4)cc2)cc1`: the DC50 is more than 5 µM in assay [10], more than 5 µM in assay [11], more than 5 µM in assay [12] and 3.52 µM in assay [13]. In addition, the Ka in assay [14] is 7.2(2)x10^4 M^-1; in assay [15] it was 5.6(0.1)x10^4 M^-1; in assay [16], < 10^3 M^-1; in [17], 5.5(0.3)x10^4 M^-1; in assay [18], < 10^3 M^-1.
